Earlier results as cited in PubChem BioAssay AID1259409 (Chemical Carcinogenesis Research Information System (CCRIS), 2018).

System: rodent chemically induced tumor inhibition, incidence and multiplicity
Assay: CCRIS tumor inhibitor studies
Settings: Dose [Inhibitor]: 0

**Q.** For `CC1=CCCC(C)(C)[C@H]1/C=C/C(C)=C/C=C/C(C)=C/C=C/C=C(C)/C=C/C=C(C)/C=C/C1=C(C)CCCC1(C)C`, which “tumour outcome (control, treated, inhibition, significance)” value (Carcinogen: 4-NITROQUINOLINE-1-OXIDE, 56-57-5, 0.05% IN DRINKING WATER AD LIBITUM (STUDY DURATION: 30 WK), Route [Inhibitor]: ORAL, Species: MOUSE, Strain/Sex: DDY/MALE, Target Tissue: Type of Lesion: LUNG: TUMOR, Dose [Carcinogen]: 10 MG/KG BW IN OLIVE OIL/CHOLESTEROL (20:1) ONCE, Promoter: GLYCEROL, 56-81-5) is on record?
**A.** 94%, 73%, 22%, not significant

**Q.** And the “tumour outcome (control, treated, inhibition, significance)” value (Carcinogen: 4-NITROQUINOLINE-1-OXIDE, 56-57-5, 0.05% IN DRINKING WATER BEGINNING 5 WK POST CARCINOGEN TREATMENT AND CONTINUING FOR 25 WK (STUDY DURATION: 30 WK), Route [Inhibitor]: ORAL, Species: MOUSE, Strain/Sex: DDY/MALE, Target Tissue: Type of Lesion: LUNG: TUMORS, Dose [Carcinogen]: 10 MG/KG BW IN OLIVE OIL AND CHOLESTEROL (20:1) ONCE, Promoter: NONE USED)?
**A.** 94%, 73%, 22%, not calculated

**Q.** And the “tumour outcome (control, treated, inhibition, significance)” value (Carcinogen: 7,12-DIMETHYLBENZ[A]ANTHRACENE, 57-97-6, 0.05% IN DRINKING WATER AD LIBITUM FOR 30 WK BEGINNING 1 WK POST CARCINOGEN DOSE (STUDY DURATION: 31 WK), Route [Inhibitor]: ORAL, Species: MOUSE, Strain/Sex: ICR/FEMALE, Target Tissue: Type of Lesion: SKIN: TUMOR, Dose [Carcinogen]: 100 UG ONCE, Promoter: 12-O-TETRADECANOYLPHORBOL-13-ACETATE, 16561-29-8)?
**A.** 13/16 (81%), 7/16 (44%), 46%, not significant

**Q.** And the “tumour outcome (control, treated, inhibition, significance)” value (Carcinogen: 7,12-DIMETHYLBENZ[A]ANTHRACENE, 57-97-6, 200 NMOL IN 200 µL ACETONE 2/WK BEGINNING 1 WK POST CARCINOGEN DOSE APPLIED SIMULTANEOUSLY WITH PROMOTER FOR 20 WK (S, Route [Inhibitor]: DERMAL, Species: MOUSE, Strain/Sex: ICR/?, Target Tissue: Type of Lesion: SKIN: PAPILLOMA, Dose [Carcinogen]: 100 UG ONCE, Promoter: 12-O-TETRADECANOYLPHORBOL-13-ACETATE, 16561-29-8)?
**A.** 69%, 25%, 64%, not calculated

**Q.** What about the “tumour outcome (control, treated, inhibition, significance)” value (Carcinogen: 7,12-DIMETHYLBENZ[A]ANTHRACENE, 57-97-6, 200 NMOL IN 200 µL ACETONE 2/WK FOR 40 WK APPLIED SIMULTANEOUSLY WITH PROMOTER BEGINNING 1 WK POST CARCINOGEN DOSE (S, Route [Inhibitor]: DERMAL, Species: MOUSE, Strain/Sex: ICR/FEMALE, Target Tissue: Type of Lesion: SKIN: TUMOR, Dose [Carcinogen]: 100 UG ONCE, Promoter: 12-O-TETRADECANOYLPHORBOL-13-ACETATE, 16561-29-8) of the same molecule?
**A.** 10/15 (67%), 5/15 (33%), 51%, p<0.01

**Q.** And the “tumour outcome (control, treated, inhibition, significance)” value (Carcinogen: 7,12-DIMETHYLBENZ[A]ANTHRACENE, 57-97-6, 400 NMOL IN 200 µL ACETONE 2/WK BEGINNING 1 WK POST CARCINOGEN DOSE APPLIED SIMULTANEOUSLY WITH PROMOTER FOR 20 WK (S, Route [Inhibitor]: DERMAL, Species: MOUSE, Strain/Sex: ICR/?, Target Tissue: Type of Lesion: SKIN: PAPILLOMA, Dose [Carcinogen]: 100 UG ONCE, Promoter: 12-O-TETRADECANOYLPHORBOL-13-ACETATE, 16561-29-8)?
**A.** 69%, 13%, 81%, not calculated

**Q.** And the “tumour outcome (control, treated, inhibition, significance)” value (Carcinogen: NONE USED, 0.005% IN DRINKING WATER AD LIBITUM FOR 40 WK (STUDY DURATION: 40 WK), Route [Inhibitor]: ORAL, Species: MOUSE, Strain/Sex: C3H/HE/MALE, Target Tissue: Type of Lesion: LIVER: TUMOR, Promoter: NONE USED)?
**A.** 100%, 100%, 0%, not significant

**Q.** And the “tumour outcome (control, treated, inhibition, significance)” value (Carcinogen: NONE USED, 0.005% IN DRINKING WATER FOR 40 WK (STUDY DURATION: 40 WK), Route [Inhibitor]: ORAL, Species: MOUSE, Strain/Sex: C3H/HE/MALE, Target Tissue: Type of Lesion: LIVER: TUMORS, Promoter: NONE USED)?
**A.** 16/16 (100%), 15/15 (100%), 0%, not significant

**Q.** And the “tumour outcome (control, treated, inhibition, significance)” value (Carcinogen: NONE USED, 0.05% IN DRINKING WATER AD LIBITUM FOR 40 WK (STUDY DURATION: 40 WK), Route [Inhibitor]: ORAL, Species: MOUSE, Strain/Sex: C3H/HE/MALE, Target Tissue: Type of Lesion: LIVER: TUMOR, Promoter: NONE USED)?
**A.** 100%, 94%, 6%, not significant

**Q.** What about the “tumour outcome (control, treated, inhibition, significance)” value (Carcinogen: NONE USED, 0.05% IN DRINKING WATER FOR 40 WK (STUDY DURATION: 40 WK), Route [Inhibitor]: ORAL, Species: MOUSE, Strain/Sex: C3H/HE/MALE, Target Tissue: Type of Lesion: LIVER: TUMORS, Promoter: NONE USED) of the same molecule?
**A.** 16/16 (100%), 16/17 (94%), 6%, not calculated

**Q.** For `CC(C#Cc1ccc(Oc2ccc(F)cc2)o1)N(O)C(N)=O` (stereo not drawn), which “tumour outcome (control, treated, inhibition, significance)” value (Carcinogen: 4-(METHYLNITROSAMINO)-1-(3-PYRIDYL)-1-BUTANONE, 64091-91-4, 74 MG/KG DIET FOR DURATION OF STUDY BEGINNING 2 WK PRIOR TO CARCINOGEN TREATMENT (STUDY DURATION: 25 WK), Route [Inhibitor]: ORAL, Species: MOUSE, Strain/Sex: STRAIN-A/FEMALE, Target Tissue: Type of Lesion: LUNG: TUMOR, Dose [Carcinogen]: 9.1 MG/MOUSE IN DRINKING WATER FOR 7 WK, Promoter: NONE USED) is on record?
**A.** 29/29 (100%), 20/25 (80%), 20%, p<0.001

**Q.** For `CC(C)[C@H]1C=C[C@H](O)CC1`, which “tumour outcome (control, treated, inhibition, significance)” value (Carcinogen: 7,12-DIMETHYLBENZ[A]ANTHRACENE, 57-97-6, 12 NMOL PER REPEATED APPLICATION FOR 20 WK (STUDY DURATION: 20 WK), Route [Inhibitor]: DERMAL, Species: MOUSE, Strain/Sex: CD-1/FEMALE, Target Tissue: Type of Lesion: SKIN: TUMOR, Dose [Carcinogen]: 100 UG ONCE, Promoter: OKADAIC ACID, 78111-17-8) is on record?
**A.** 87%, 53%, 39%, not calculated

**Q.** Which “tumour outcome (control, treated, inhibition, significance)” value (Carcinogen: N-METHYL-N'-NITRO-N-NITROSOGUANIDINE, 70-25-7, 200 MG/KG/BW SUSPENSION IN OLIVE OIL 1/2 D BEGINNING POST CARCINOGEN TREATMENT AND CONTINUING FOR DURATION OF STUDY (, Route [Inhibitor]: SUBCUTANEOUS, Species: RAT, Strain/Sex: WISTAR/MALE, Target Tissue: Type of Lesion: STOMACH: ADENOCARCINOMA, Dose [Carcinogen]: 50 UG/ML IN DRINKING WATER FOR 25 WK, Promoter: NONE USED) does the source give for `O=C1CCCO1` here?
**A.** 16/20 (80%), 13/20 (65%), 19%, not significant

**Q.** Which “tumour outcome (control, treated, inhibition, significance)” value (Carcinogen: BENZO[A]PYRENE, 50-32-8, 20 MG 3/WK FOR 4 WK ON DAYS OTHER THAN THE CARCINOGEN TREATMENT (STUDY DURATION: 20 WK), Route [Inhibitor]: GAVAGE, Species: MOUSE, Strain/Sex: STRAIN-A/FEMALE, Target Tissue: Type of Lesion: FORESTOMACH: TUMOR, Dose [Carcinogen]: 1 MG IN 0.2 ML COTTONSEED OIL 2/WK FOR 4 WK, Promoter: NONE USED) does the source give for `CCCCC1OC(=O)C2=CCCCC21` (stereo not drawn) here?
**A.** 13/19 (68%), 2/18 (11%), 84%, p<0.025

**Q.** For `C=C(C)C1CC=C(C)C(O)C1` (stereo not drawn), which “tumour outcome (control, treated, inhibition, significance)” value (Carcinogen: 7,12-DIMETHYLBENZ[A]ANTHRACENE, 57-97-6, 1% IN DIET FOR 3 WK BEGINNING 2 WK PRIOR TO CARCINOGEN DOSE (STUDY DURATION: 20 WK), Route [Inhibitor]: ORAL, Species: RAT, Strain/Sex: WISTAR/FEMALE, Target Tissue: Type of Lesion: MAMMARY GLAND: CARCINOMA, Dose [Carcinogen]: 50 MG/KG IN SESAME OIL ONCE, Promoter: NONE USED) is on record?
**A.** 98%, 92%, 6%, not significant

**Q.** Which “tumour outcome (control, treated, inhibition, significance)” value (Carcinogen: 7,12-DIMETHYLBENZ[A]ANTHRACENE, 57-97-6, 2 UMOL 2/WK FOR 18 WK APPLIED 30 MIN PRIOR TO EACH PROMOTER DOSE BEGINNING 1 WK POST CARCINOGEN DOSE (STUDY DURATION:, Route [Inhibitor]: DERMAL, Species: MOUSE, Strain/Sex: ICR/FEMALE, Target Tissue: Type of Lesion: SKIN: PAPILLOMA, Dose [Carcinogen]: 50 UG ONCE, Promoter: 12-O-TETRADECANOYLPHORBOL-13-ACETATE, 16561-29-8) does the source give for `CC[C@H](C)/C=C/C1=CC2=C(Cl)C(=O)[C@@]3(C)OC(=O)C(C(=O)[C@@H](C)[C@@H](C)O)=C3C2=CO1` here?
**A.** 100%, 33%, 67%, not calculated

**Q.** Which results are given for `O=[Se](=O)(O)O`?
**A.** tumour outcome (control, treated, inhibition, significance) (Carcinogen: 7,12-DIMETHYLBENZ[A]ANTHRACENE, 57-97-6, 0.2 PPM IN DIET BEGINNING 3 D PRIOR TO CARCINOGEN DOSE AND CONTINUING FOR 8 MO (STUDY DURATION: 8 MO), Route [Inhibitor]: ORAL, Species: MOUSE, Strain/Sex: BALB/FEMALE, Target Tissue: Type of Lesion: MAMMARY GLAND: ADENOCARCINOMA, Dose [Carcinogen]: 1 MG/WK FOR 6 WK, Promoter: NONE USED): 12/31 (39%), 7/24 (29%), 26%, not calculated; tumour outcome (control, treated, inhibition, significance) (Carcinogen: 7,12-DIMETHYLBENZ[A]ANTHRACENE, 57-97-6, 2 PPM IN DIET BEGINNING 3 D PRIOR TO CARCINOGEN DOSE AND CONTINUING FOR 8 MO (STUDY DURATION: 8 MO), Route [Inhibitor]: ORAL, Species: MOUSE, Strain/Sex: BALB/FEMALE, Target Tissue: Type of Lesion: MAMMARY GLAND: ADENOCARCINOMA, Dose [Carcinogen]: 1 MG/WK FOR 6 WK, Promoter: NONE USED): 12/31 (39%), 2/23 (9%), 77%, p<0.08
